The term IC50 denotes the midpoint of a concentration-inhibition curve.

This note sets out measurements from patent US9242996B2 (Novartis AG, priority 2013, dated 2016).

SMILES strings stand for the structures.

activated ERK2, sequence (P28482 whole entry): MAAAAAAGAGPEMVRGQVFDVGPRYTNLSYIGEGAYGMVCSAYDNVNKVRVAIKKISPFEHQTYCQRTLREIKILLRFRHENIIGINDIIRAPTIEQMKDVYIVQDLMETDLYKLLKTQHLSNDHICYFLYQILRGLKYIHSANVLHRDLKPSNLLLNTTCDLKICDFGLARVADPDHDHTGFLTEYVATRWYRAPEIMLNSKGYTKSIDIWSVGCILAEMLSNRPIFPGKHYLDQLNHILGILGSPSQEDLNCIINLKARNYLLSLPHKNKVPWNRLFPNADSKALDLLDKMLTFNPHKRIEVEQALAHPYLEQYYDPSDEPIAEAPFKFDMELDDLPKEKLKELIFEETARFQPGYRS

For this assay, the target named is activated ERK2 (Homo sapiens (Human), UniProt P28482). Description: Activated ERK2 (20 pM) Kinase Assay (AlphaScreen, ERKtide phosphorylation). The assay is classed as biochemical. The conditions noted are these: 0.02 nM ERK2, 400 nM ERKtide peptide, 35 μM ATP, 30 min preincubation. The method in brief:
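AlphaScreen read-out (anti-phospho-EGFR Thr669 antibody, protein A acceptor/streptavidin donor beads) of ERKtide (400 nM) phosphorylation by 20 pM activated ERK2 at 35 μM ATP.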
(In general: Bead proximity is the source of the signal in Alpha formats.)
`NC[C@@H](NC(=O)c1ccc(-c2nc([C@@H]3CC[C@@H](O)[C@H](F)C3)cnc2N)cc1F)c1cc(F)cc(I)c1` [Example 315, N-((S)-2-amino-1-(3-fluoro-5-iodophenyl)ethyl)-4-(3-amino-6-((1R,3R,4R)-3-fluoro-4-hydroxy-cyclohexyl)pyrazin-2-yl)-2-fluorobenzamide] gave an IC50 of 0.005 nM. Compound `Nc1ncc(C2CCOCC2)nc1-c1ccc(C(=O)N[C@@H](C#CC2CC2)CO)c(F)c1` [Example 321, (S)-4-(3-amino-6-(tetrahydro-2H-pyran-4-yl)pyrazin-2-yl)-N-(4-cyclopropyl-1-hydroxybut-3-yn-2-yl)-2-fluorobenzamide] had an IC50 of 84.9 nM.

`Nc1ncc(C2CCOCC2)nc1-c1ccc(C(=O)N[C@H](CO)c2cc(F)cc(CF)c2)c(F)c1` [Example 329, (S)-4-(3-amino-6-(tetrahydro-2H-pyran-4-yl)pyrazin-2-yl)-2-fluoro-N-(1-(3-fluoro-5-(fluoromethyl)phenyl)-2-hydroxyethyl) benzamide] gave an IC50 of 0.01 nM. In turn, `Nc1ncc(C2CCOCC2)nc1-c1ccc(C(=O)N[C@H](CO)c2cc(F)cc(Cl)c2)c(F)c1` [Example 330, (S)-4-(3-amino-6-(tetrahydro-2H-pyran-4-yl)pyrazin-2-yl)-N-(1-(3-chloro-5-fluorophenyl)-2-hydroxyethyl)-2-fluorobenzamide] had an IC50 of 0.0222 nM.

For the compound `C[C@@H](O)[C@@H](NC(=O)c1ccc(-c2nc(C3CCOCC3)cnc2N)cc1F)c1cccc(Cl)c1` [Example 331, 4-(3-amino-6-(tetrahydro-2H-pyran-4-yl)pyrazin-2-yl)-N-((1S,2R)-1-(3-chlorophenyl)-2-hydroxypropyl)-2-fluorobenzamide], the 50% inhibitory concentration (IC50) is 0.0645 nM. With `C[C@@H](O)[C@@H](NC(=O)c1ccc(-c2cc(-c3cnn(C)c3)cnc2N)cc1F)c1cccc(Cl)c1` [Example 332, 4-(2-amino-5-(1-methyl-1H-pyrazol-4-yl)pyridin-3-yl)-N-((1S,2R)-1-(3-chlorophenyl)-2-hydroxypropyl)-2-fluorobenzamide], the midpoint of inhibition, the IC50, lay at 0.815 nM. `Nc1ncc(C2CCOCC2)nc1-c1ccc(C(=O)N[C@H](CO)c2cc(F)cc(C(F)F)c2)c(F)c1` [Example 335, (S)-4-(3-amino-6-(tetrahydro-2H-pyran-4-yl)pyrazin-2-yl)-N-(1-(3-(difluoromethyl)-5-fluorophenyl)-2-hydroxyethyl)-2-fluorobenzamide] had an IC50 of 0.0208 nM.

As to `CNC[C@@H](NC(=O)c1ccc(-c2nc(C3CCOCC3)cnc2N)cc1F)c1cc(F)cc(Cl)c1` [Example 336, (S)-4-(3-amino-6-(tetrahydro-2H-pyran-4-yl)pyrazin-2-yl)-N-(1-(3-chloro-5-fluorophenyl)-2-(methylamino)ethyl)-2-fluorobenzamide], the concentration for half-maximal inhibition (IC50) worked out at 0.0143 nM. `Nc1ncc([C@H]2CC[C@H](O)CC2)nc1-c1ccc(C(=O)N[C@H](CO)c2cc(F)cc(C(F)F)c2)c(F)c1` [Example 337, 4-(3-amino-6-((1r,4S)-4-hydroxycyclohexy)pyrazin-2-yl)-N-((S)-1-(3-(difluoromethyl)-5-fluorophenyl)-2-hydroxyethyl)-2-fluorobenzamide] gave an IC50 of 0.0435 nM. With `Nc1ncc([C@H]2CC[C@H](O)CC2)nc1-c1ccc(C(=O)N[C@H](CO)c2cccc(C(F)(F)F)c2)c(F)c1` [Example 340, 4-(3-amino-6-((1r,4S)-4-hydroxy-cyclohexyl)pyrazin-2-yl)-2-fluoro-N-((S)-2-hydroxy-1-(3-(trifluoromethyl)phenyl)ethyl) benzamide] the figure was 187 nM. The same measure for `Nc1ncc([C@H]2CC[C@@H](O)CC2)nc1-c1ccc(C(=O)N[C@H](CO)c2cccc(C(F)(F)F)c2)c(F)c1` [Example 341, 4-(3-amino-6-((1s,4R)-4-hydroxy-cyclohexyl)pyrazin-2-yl)-2-fluoro-N-((S)-2-hydroxy-1-(3-(trifluoromethyl)phenyl)ethyl) benzamide]: 1050 nM; for `NC[C@@H](NC(=O)c1ccc(-c2nc([C@H]3CC[C@H](O)CC3)cnc2N)cc1F)c1cc(F)cc(Br)c1` [Example 342, N-((S)-2-amino-1-(3-bromo-5-fluorophenyl)ethyl)-4-(3-amino-6-((1r,4S)-4-hydroxycyclohexyl)pyrazin-2-yl)-2-fluorobenzamide]: 0.0173 nM. In the case of `NC[C@@H](NC(=O)c1ccc(-c2nc([C@H]3CC[C@H](O)CC3)cnc2N)cc1F)c1cccc(I)c1` [Example 343, N-((S)-2-amino-1-(3-iodophenyl)ethyl)-4-(3-amino-6-((1r,4S)-4-hydroxy-cyclohexyl)pyrazin-2-yl)-2-fluorobenzamide], inhibition was half-maximal at 0.011 nM (IC50).

For the compound `Nc1ncc([C@H]2CC[C@H](O)CC2)nc1-c1ccc(C(=O)N[C@H](CO)c2cc(F)cc(I)c2)c(F)c1` [Example 344, 4-(3-amino-6-((1r,4S)-4-hydroxy-cyclohexyl)pyrazin-2-yl)-2-fluoro-N-((S)-1-(3-fluoro-5-iodophenyl)-2-hydroxyethyl) benzamide], the IC50 came out at 0.00977 nM.

With `Nc1ncc([C@H]2CC[C@@H](O)CC2)nc1-c1ccc(C(=O)N[C@H](CO)c2cc(F)cc(I)c2)c(F)c1` [Example 345, 4-(3-amino-6-((1s,4R)-4-hydroxy-cyclohexyl)pyrazin-2-yl)-2-fluoro-N-((S)-1-(3-fluoro-5-iodophenyl)-2-hydroxyethyl) benzamide], the IC50 turned out to be 0.0956 nM.

On to `Nc1ncc([C@H]2CC[C@H](O)CC2)nc1-c1ccc(C(=O)N[C@H](CO)c2cccc(I)c2)c(F)c1` [Example 346, 4-(3-amino-6-((1r,4S)-4-hydroxy-cyclohexyl)pyrazin-2-yl)-2-fluoro-N-((S)-2-hydroxy-1-(3-iodophenyl)ethyl) benzamide], for which the IC50 came to 0.0175 nM. With `Nc1ncc([C@H]2CC[C@@H](O)CC2)nc1-c1ccc(C(=O)N[C@H](CO)c2cccc(I)c2)c(F)c1` [Example 347, 4-(3-amino-6-((1s,4R)-4-hydroxy-cyclohexyl)pyrazin-2-yl)-2-fluoro-N-((S)-2-hydroxy-1-(3-iodophenyl)ethyl) benzamide] the figure was 0.193 nM. With `CNC[C@@H](NC(=O)c1ccc(-c2nc([C@@H]3CC[C@@H](O)[C@@H](F)C3)cnc2N)cc1F)c1cc(F)cc(Br)c1` [Example 355, 4-(3-amino-6-((1R,3S,4R)-3-fluoro-4-hydroxy-cyclohexyl)pyrazin-2-yl)-N-((S)-1-(3-bromo-5-fluorophenyl)-2-(methylamino)ethyl)-2-fluorobenzamide], 0.023 nM corresponded to half-maximal inhibition (IC50). In the case of `CNC[C@@H](NC(=O)c1ccc(-c2nc([C@H]3CC[C@H](O)[C@H](F)C3)cnc2N)cc1F)c1cc(F)cc(Br)c1` [Example 356, 4-(3-amino-6-((1S,3R,4S)-3-fluoro-4-hydroxy-cyclohexyl)pyrazin-2-yl)-N-((S)-1-(3-bromo-5-fluorophenyl)-2-(methylamino)ethyl)-2-fluorobenzamide], the IC50 was determined as 0.0317 nM.

As for `CNC[C@@H](NC(=O)c1ccc(-c2nc([C@H]3CC[C@H](O)[C@@H](F)C3)cnc2N)cc1F)c1cc(F)cc(I)c1` [Example 357, 4-(3-amino-6-((1S,3S,4S)-3-fluoro-4-hydroxy-cyclohexyl)pyrazin-2-yl)-2-fluoro-N-((S)-1-(3-fluoro-5-iodophenyl)-2-(methylamino)ethyl)benzamide], the 50% inhibitory concentration (IC50) worked out at 0.0143 nM. Compared with the last compound, the IC50 is about 2.2-fold lower. With `CNC[C@@H](NC(=O)c1ccc(-c2nc([C@@H]3CC[C@@H](O)[C@H](F)C3)cnc2N)cc1F)c1cc(F)cc(I)c1` [Example 358, 4-(3-amino-6-((1R,3R,4R)-3-fluoro-4-hydroxy-cyclohexyl)pyrazin-2-yl)-2-fluoro-N-((S)-1-(3-fluoro-5-iodophenyl)-2-(methylamino)ethyl)benzamide] the figure was 0.0205 nM; with `CNC[C@@H](NC(=O)c1ccc(-c2nc([C@@H]3CC[C@@H](O)[C@H](F)C3)cnc2N)cc1F)c1cccc(Br)c1` [Example 359, 4-(3-amino-6-((1R,3R,4R)-3-fluoro-4-hydroxy-cyclohexyl)pyrazin-2-yl)-N-((S)-1-(3-bromophenyl)-2-(methylamino)ethyl)-2-fluorobenzamide], 0.076 nM; with `CNC[C@@H](NC(=O)c1ccc(-c2nc([C@H]3CC[C@H](O)CC3)cnc2N)cc1F)c1cc(F)cc(I)c1` [Example 360, 4-(3-amino-6-((1r,4S)-4-hydroxy-cyclohexyl)pyrazin-2-yl)-2-fluoro-N-((S)-1-(3-fluoro-5-iodophenyl)-2-(methylamino)ethyl)benzamide], 0.00665 nM. The same measure for `CNC[C@@H](NC(=O)c1ccc(-c2nc([C@@H]3CC[C@@H](O)[C@H](F)C3)cnc2N)cc1F)c1cc(F)cc(Br)c1` [Example 361, 4-(3-amino-6-((1R,3R,4R)-3-fluoro-4-hydroxy-cyclohexyl)pyrazin-2-yl)-N-((S)-1-(3-bromo-5-fluorophenyl)-2-(methylamino)ethyl)-2-fluorobenzamide]: 0.104 nM; for `CNC[C@@H](NC(=O)c1ccc(-c2nc(C3CCOCC3)cnc2N)cc1F)c1cc(F)cc(Br)c1` [Example 365, (S)-4-(3-amino-6-(tetrahydro-2H-pyran-4-yl)pyrazin-2-yl)-N-(1-(3-bromo-5-fluorophenyl)-2-(methylamino)ethyl)-2-fluorobenzamide]: 0.0208 nM; for `CCNC[C@@H](NC(=O)c1ccc(-c2nc(C3CCOCC3)cnc2N)cc1F)c1cc(F)cc(Br)c1` [Example 371, (S)-4-(3-amino-6-(tetrahydro-2H-pyran-4-yl)pyrazin-2-yl)-N-(1-(3-bromo-5-fluorophenyl)-2-(ethylamino)ethyl)-2-fluorobenzamide]: 0.03 nM. `NC[C@@H](NC(=O)c1ccc(-c2nc([C@H]3CC[C@H](O)CC3)cnc2N)cc1F)c1cc(F)cc(I)c1` [Example 373, N-((S)-2-amino-1-(3-fluoro-5-iodophenyl)ethyl)-4-(3-amino-6-((1r,4S)-4-hydroxy-cyclohexyl)pyrazin-2-yl)-2-fluorobenzamide]: the concentration for half-maximal inhibition (IC50) came out at 0.00837 nM. This IC50 lies about 3.6-fold lower than the previous one.
